{"source": "patent EP1650209A1", "about": "“Griseusin derivatives and their use as antitumor agents” (Oncotest GmbH, priority 2004, dated 2006)", "test_in_all_cases": "Clonogenic assay, colony formation of tumor stem cells from xenografts", "format_in_all_cases": "cell-based, human", "key": {"[1]": {"test_system": "MEXF 462", "conditions": "Melanoma, xenograft MEXF 462, colony formation", "experimental": "(§1) Using various human cancer xenografts in vitro, the concentrations of compound B which inhibit formation of tumor colonies of tumor stem cells by 50% (IC50) and 70% (IC70) are determined in a clonogenic assay. Specifically, each solid tumor of bladder cancer (BXF 1036 and BXF 1299), cervical cancer (CEXF 633 and CEXF 773), colic cancer (CXF 1103, CXF 158, CXF 1729, CXF 264 and CXF 280), gastric cancer (GXF 251 and GXF 97), head and neck cancer (HNXF 536), liver cancer (LIXF 575), non small cell lung cancer comprising adeno, squamous epithelium and large cell carcinoma (LXFA 1012, LXFA 289, LXFA 297, LXFA 526, LXFA 592, LXFA 629, LXFA 677, LXFE 409, LXFL 1072, LXFL 430LX and LXFL 529), small cell lung cancer (LXFS 650), mammary cancer (MAXF 1162, MAXF 1384, MAXF 401, MAXF 449, MAXF 574, MAXF 583, MAXF 713 and MAXF 857), melanoma (MEXF 1341, MEXF 462, MEXF 535 and MEXF 989), ovary cancer (OVXF 899), pancreatic cancer (PAXF 546 and PAXF 736), prostate cancer (DU-145 and PC3M), pleuramesothelioma (PXF 1752), renal cancer (RXF 1220, RXF 1393, RXF 393, RXF 631 and RXF 944LX), and sarcoma (SXF 1301 and SXF 463) engrafted on RPMI nu/nu thymus aplastic nude mice were explanted, disaggregated by mincing and enzymatic digestion for 50 minutes using 125 U/mL DNAse I, 41 U/mL collagenase IV, 100 U/ml hyaluronidase III, and 1 U/mL dispase I, and passed through sieves of 200 µm and 50 µm mesh size and washed twice with sterile PBS-buffer to remove cell aggregated from single cells. The clonogenic assay was performed in a 24 multiwell format. Each of the resulting single cell suspensions was added at a density of 2·10^4 to 6·10^4 cells per well to 0.2 ml of Iscove's Modified Dulbecco's Medium (IMDM) containing 20% fetal calf serum and 0.01% gentamicin supplemented with 0.4% (w/v) agar, and plated onto a bottom layer consisting of the same culture medium containing 0.75% (w/v) agar. After 24 hours IMDM containing 20% fetal calf serum and 0.01 % gentamicin, together with a test compound, was added there to. Then, the plate was incubated at 37°C for 10 to 20 days in a humidified atmosphere of air containing 7.5% CO2. Within this period, in vitro tumor growth led to the formation of colonies with a diameter of > 50µm. Colony counts were performed with an automatic image analysis system (OMNICON 3600). 24 hours prior to evaluation, vital colonies were stained with a vital staining dye. Therefore, 100 µl of a sterile aqueous solution of 2-(4-iodophenyl)-3-(4-nitrophenyl)-5-phenyltetrazolium chloride (1 mg/ml) were added to each well of the plate, and plates were incubated for 24 hours at 37°C in a humidified atmosphere of air containing 7.5% CO2. Inhibition of colony formation was expressed as test versus untreated control (T/C-value [%]). IC50 and IC70 values were determined by plotting compound concentration versus cell viability. Table 3: Inhibition of Colony Formation of Tumor Stem Cells by griseusin derivative B"}, "[2]": {"test_system": "LIXF 575", "conditions": "Liver, xenograft LIXF 575, colony formation", "experimental": "as §1"}, "[3]": {"test_system": "LXFL 529", "conditions": "Lung, non small cell, xenograft LXFL 529, colony formation", "experimental": "as §1"}, "[4]": {"test_system": "SXF 1301", "conditions": "Sarcoma, xenograft SXF 1301, colony formation", "experimental": "as §1"}, "[5]": {"test_system": "RXF 393", "conditions": "Kidney, xenograft RXF 393, colony formation", "experimental": "as §1"}, "[6]": {"test_system": "MAXF 583", "conditions": "Breast, xenograft MAXF 583, colony formation", "experimental": "as §1"}, "[7]": {"test_system": "BXF 1036", "conditions": "Bladder, xenograft BXF 1036, colony formation", "experimental": "as §1"}, "[8]": {"test_system": "DU-145", "conditions": "Prostate, xenograft DU-145, colony formation", "experimental": "as §1"}, "[9]": {"test_system": "GXF 97", "conditions": "Stomach, xenograft GXF 97, colony formation", "experimental": "as §1"}, "[10]": {"test_system": "OVXF 899", "conditions": "Ovary, xenograft OVXF 899, colony formation", "experimental": "as §1"}, "[11]": {"test_system": "RXF 1393", "conditions": "Kidney, xenograft RXF 1393, colony formation", "experimental": "as §1"}, "[12]": {"test_system": "LXFL 1072", "conditions": "Lung, non small cell, xenograft LXFL 1072, colony formation", "experimental": "as §1"}, "[13]": {"test_system": "LXFA 1012", "conditions": "Lung, non small cell, xenograft LXFA 1012, colony formation", "experimental": "as §1"}, "[14]": {"test_system": "LXFA 629", "conditions": "Lung, non small cell, xenograft LXFA 629, colony formation", "experimental": "as §1"}, "[15]": {"test_system": "GXF 251", "conditions": "Stomach, xenograft GXF 251, colony formation", "experimental": "as §1"}, "[16]": {"test_system": "MEXF 535", "conditions": "Melanoma, xenograft MEXF 535, colony formation", "experimental": "as §1"}, "[17]": {"test_system": "MEXF 989", "conditions": "Melanoma, xenograft MEXF 989, colony formation", "experimental": "as §1"}, "[18]": {"test_system": "CEXF 633", "conditions": "Cervix, xenograft CEXF 633, colony formation", "experimental": "as §1"}}, "data": [{"smiles": "C[C@@H]1CC(=O)[C@@H](O)[C@]2(O1)O[C@@H]1CC(=O)O[C@@H]1C1=C2C(=O)c2c(O)cccc2C1=O", "note": "[Compound B, 4'-dehydro-deacetylgriseusin A]", "values": [{"measurement": "IC50", "setting": "[1]", "value": 1.666, "unit": "µg/mL"}, {"measurement": "IC70", "setting": "[1]", "value": 2.152, "unit": "µg/mL"}, {"measurement": "IC50", "setting": "[2]", "value": 0.616, "unit": "µg/mL"}, {"measurement": "IC70", "setting": "[2]", "value": 0.764, "unit": "µg/mL"}, {"measurement": "IC50", "setting": "[3]", "value": 0.364, "unit": "µg/mL"}, {"measurement": "IC70", "setting": "[3]", "value": 0.699, "unit": "µg/mL"}, {"measurement": "IC50", "setting": "[4]", "value": 0.328, "unit": "µg/mL"}, {"measurement": "IC70", "setting": "[4]", "value": 0.517, "unit": "µg/mL"}, {"measurement": "IC50", "setting": "[5]", "value": 0.150, "unit": "µg/mL"}, {"measurement": "IC70", "setting": "[5]", "value": 0.212, "unit": "µg/mL"}, {"measurement": "IC50", "setting": "[6]", "value": 0.078, "unit": "µg/mL"}, {"measurement": "IC70", "setting": "[6]", "value": 0.195, "unit": "µg/mL"}, {"measurement": "IC50", "setting": "[7]", "value": 1.743, "unit": "µg/mL"}, {"measurement": "IC70", "setting": "[7]", "value": 2.271, "unit": "µg/mL"}, {"measurement": "IC50", "setting": "[8]", "value": 1.086, "unit": "µg/mL"}, {"measurement": "IC70", "setting": "[8]", "value": 1.644, "unit": "µg/mL"}, {"measurement": "IC50", "setting": "[9]", "value": 0.300, "unit": "µg/mL"}, {"measurement": "IC70", "setting": "[9]", "value": 0.495, "unit": "µg/mL"}, {"measurement": "IC50", "setting": "[10]", "value": 0.468, "unit": "µg/mL"}, {"measurement": "IC70", "setting": "[10]", "value": 0.731, "unit": "µg/mL"}, {"measurement": "IC50", "setting": "[11]", "value": 0.592, "unit": "µg/mL"}, {"measurement": "IC70", "setting": "[11]", "value": 0.769, "unit": "µg/mL"}, {"measurement": "IC50", "setting": "[12]", "value": 0.252, "unit": "µg/mL"}, {"measurement": "IC70", "setting": "[12]", "value": 0.468, "unit": "µg/mL"}, {"measurement": "IC50", "setting": "[13]", "value": 0.442, "unit": "µg/mL"}, {"measurement": "IC70", "setting": "[13]", "value": 0.631, "unit": "µg/mL"}, {"measurement": "IC50", "setting": "[14]", "value": 0.808, "unit": "µg/mL"}, {"measurement": "IC70", "setting": "[14]", "value": 1.276, "unit": "µg/mL"}, {"measurement": "IC50", "setting": "[15]", "value": 0.333, "unit": "µg/mL"}, {"measurement": "IC70", "setting": "[15]", "value": 0.677, "unit": "µg/mL"}, {"measurement": "IC50", "setting": "[16]", "value": 0.055, "unit": "µg/mL"}, {"measurement": "IC70", "setting": "[16]", "value": 0.094, "unit": "µg/mL"}, {"measurement": "IC50", "setting": "[17]", "value": 0.118, "unit": "µg/mL"}, {"measurement": "IC70", "setting": "[17]", "value": 0.182, "unit": "µg/mL"}, {"measurement": "IC50", "setting": "[18]", "value": 1.310, "unit": "µg/mL"}, {"measurement": "IC70", "setting": "[18]", "value": 1.837, "unit": "µg/mL"}]}]}
